Experiments:
[1] = system: Nitrogen Oxide (NO) generation; assay: Inhibition of nitrogen oxide (NO) generation in LPS-treated Raw 264.7 cells (Griess); format: cell-based, mouse; settings: Raw 264.7, LPS 500 ng/ml, 24 hours
Description: Raw 264.7 (ATCC TIB71) cells were inoculated in a 96-well plate containing the same medium as used in Experimental Example 1 at the density of 1×10^5 cells/well. The cells were cultured in 5% CO2 at 37° C. for 4 hours to attach the cells onto the plate. The cells were treated with each sample at different concentrations, followed by further culture for 1 hour. […] were treated thereto at the final concentration of 500 ng/ml, followed by further culture for 24 hours. 100 μl of the supernatant was taken and transferred in a new plate, which was mixed with Griess reagent (a mixture of 1% sulfanilamide, 0.1% N-[1-naphthyl]-ethylenediamine dihydrochloride, and 5% phosphoric acid), followed by reaction for 10 minutes. Then, OD540 was measured. NO generation was quantified by using the sodium nitrite standard curve prepared from […] dissolved in the same medium at different concentrations. Considering the NO generation of the inflammation induced macrophages as 100%, the NO generation inhibition rate was calculated and presented in Table 7.

[2] = system: Tumor Necrosis Factor Alpha (TNF-alpha); assay: Inhibition of TNF-alpha generation in LPS-treated Raw 264.7 cells (ELISA); format: cell-based; settings: Mus musculus, RAW264.7; Raw 264.7, LPS treated; read-out: Grades of IC50 on TNF-alpha generation
Description: Raw 264.7 cells were distributed by the same manner as described in Experimental Example <2-1>, which were treated with the samples selected due to their high NO and IL-6 suppressing effect at different concentrations. TNF-alpha included in the supernatant was measured by enzyme-linked immunosorbent assay (TNF-alpha ELISA kit, R&D Systems, MN, USA).
Particularly, 100-fold diluted supernatant was distributed in a 96-well plate on which TNF-alpha antibody was attached, followed by adhesion for 2 hours. The supernatant remaining after the adhesion was washed with a washing buffer. The detection antibody and HRP were adhered on the washed plate for 1 hour. The remaining antibody was washed. Color development was induced by using TMB substrate. The reaction was terminated with sulfuric acid solution. Then, OD450 was measured. TNF-alpha in the supernatant was quantified by using the standard curve made with the standard TNF-alpha included in the kit. TNF-alpha suppression rate was calculated by measuring the same concentration that could inhibit TNF-alpha generation up to 50% in the LPS treated group and the results are shown in Table 9.

With COc1cc(CCCO)cc2cc(-c3ccc(C)cc3)oc12 [Example 4, 3-(7-methoxy-2-p-tolylbenzofuran-5-yl)propane-1-ol] the “Grades of NO generation inhibition rate (%)” value [1] was “B (B: 25<B≤35)” and the IC50 [2] was 1 to 3 µM.

Source: patent US10053443B2, “2-phenylbenzofuran derivatives, method for preparing the same and use of the same for treating inflammatory disease” (KOREA RESEARCH INSTITUTE OF BIOSCIENCE AND BIOTECHNOLOGY, priority 2014, dated 2018)
